From patent US9775835B2 (priority 2012, dated 2017)
Like-named read-outs stand apart in the source and are kept apart here.

Columns and labels:
HIV (strain NL4-3) = test: HIV cell based assay (Level 1 / Level 2 Screen; CFAR assay): 293T transfection, TZM-bl infection, luciferase; parameters: species or system HIV-1; conditions: for Anti-HIV bioactivity of hits and analogs: second round with analogs, FIGS. 12 A, B, C
Protocol: Five hundred of the 1000 small molecule hits, having the highest binding affinity with the ASL's hypermodifications, were selected for screening at high concentration against HIV infected mammalian cells (FIG. 10). Briefly, toxicity was first assessed in 293T cells in 96-well plates (10^4 cells/well) by adding 50, 5 and 0.5 μM of small molecules in triplicate at each concentration. After two days, cells were assessed for poor growth versus control cells. Once the concentration of the small molecules at which the cells looked normal was established, these molecules were screened for anti-HIV activity through a transfection/infection protocol. An infectious molecular clone of HIV (strain NL4-3) was transfected into 293T cells using FuGene6 (Roche). After four hours, the cells were split into 96-well plates (10^4 cells/well) and the small molecules were added at the appropriate concentration in triplicate. After 48 hours of incubation of cells in the presence of the small molecules, virus-containing medium (50 μL) was removed from each well and transferred into a fresh 96-well plate containing TZM-bl cells for infection (10^4 cells/well). After 48 hours, the cells were assayed for luciferase expression. Controls were untransfected 293T cells and transfected cells without the small molecules added. Results from various small molecules with the best inhibition of HIV are shown in (FIG. 10). Active small molecules 2493, 9324, 8317, 2725, 3643, 2491, 12327, 14094, 12204, 12744, 12745, 12542, 18198, 18200, 8391, 6188, 16286 and 2712 have 80-95% inhibitory effect on the HIV propagation. These small molecules with bioactivity against HIV propagation are an example of some the hits further tested in a concentration-dependent screening.
Bioactive molecules selected in Level 1 Screen were tested using the cell based assay in a concentration (dose)-dependent manner for their ability to inhibit HIV propagation (FIG. 11). The HIV cell based assay experimental protocol described in Level 1 screen was used to conduct the Level 2 Screen. […] In addition to the concentration-dependent, cell based assay, the inhibitory activities of the active molecules identified in Screen Level 1 were also assessed using the MBS assay. This assay has been developed and standardized to mimic the unique properties characteristic of the HIV viral protein recruitment and preparation of the human host tRNA3^Lys as primer of reverse transcription. Thus, the cell-based assay and the “MBS” assay were used to confirm the mechanism of action of the hits against the functional interaction of htRNA3^Lys with HIV proteins. The MBS is a “mix and measure” assay that consists of the formation of a complex between the fluorescent peptide P6 and the fully modified anticodon stem and loop of htRNA3^Lys. The concentration of the small molecules was 150 μM i.e. 300 fold of that of P6. […] In the presence of various selected active molecules, inhibition of the complex between P6 and hASL3^Lys was observed (FIGS. 12 A, B and C). The results of these experiments allowed identification and concentration towards a smaller pool of active molecules.
In order to confirm the activity of the small molecules showing potential anti-HIV inhibition, a second round of testing using their analogs (˜20 analogs were chosen for each selected active small molecule) was initiated using the same cell based assay employed in Level 1 Screen and Level 2 Screen. […] The quality and structure of the small molecule hits and their respective analogs were confirmed by NMR and Liquid Chromatography coupled with Mass Spectrometry (LC-MS).
Dose response data of the active molecules were generated by running the biochemical and functional assays at varying concentration. The potency properties which is one of the characteristics that defines a hit, is evaluated based on the criteria that potency (IC50)<3 μM in the MBS assay and EC50<10 μM in the HIV cell based assay (See FIG. 19). […]

[1] = molecular target: hASL3^Lys-mcm^5s^2U34;ms^2t^6A37;Ψ39; test: Fluorescence quenching binding of P6 / NCp7 to fully modified hASL3^Lys; parameters: species or system human; conditions: FIGS. 5 and 6
Text: (§1) The phage-display selection of peptides was completed (randomized 15 mers, and 16 mers with cysteines at two sites for the possible generation of Zn^+2 ‘knuckles’ structures reminiscent of the HIV protein, NCp7) against the fully modified anticodon stem and loop domain of htRNA3^Lys with 5-methoxycarbonylmethyl-2-thiouridine at position 34, 2-methylthio-N^6-threonylcarbamoyladenosine-37 and pseudouridine-39 (hASL3^Lys-mcm^5s^2U34;ms^2t^6A37;Ψ39) covalently attached to microtiter avidin-plates with biotin. In reiterative and competitive phage-display library selections, the two libraries yielded 20 recurring peptide sequences that had reasonable solubility among 155 sequenced clones (Table 2). The hASL3^Lys binding properties of the peptides were characterized using chemically synthesized peptides with an N-terminal fluorescent reporter. One strongly binding, highly specific peptide (P6) was selected. Its ability to mimic the binding of the natural HIV protein, NCp7, to modified htRNA3^Lys was validated. […] Footprinting of P6 on the modified hASL3^Lys by high resolution mass spectrometry indicated conclusively that the anticodon and 3′-adjacent side of the loop were protected (Graham et al., supra).

unmodified ASL3^Lys = test: Fluorescence quenching binding of P6 / NCp7 to unmodified ASL3^Lys; parameters: species or system human; conditions: modification-dependency
Text: as §1

hASL3^Lys = test: Circular dichroism of NCp7 and P6 complexes with hASL3^Lys; parameters: species or system human; conditions: decrease in CD ellipticity with increasing amounts, FIG. 7
[2] = tested on: hASL3^Lys-mcm^5s^2U34;ms^2t^6A37;Ψ39; test: Mechanism based secondary (MBS) assay: competition with fluorescent peptide P6 for hASL3^Lys; type: binding, human; conditions: complex formation in the absence of small molecules
Text: In order to identify a set of small molecule ‘hits’, that inhibit viral recruitment or viral preparation of htRNA3^Lys, the inventors developed a microtiter plate-based fluorescence assay. This mechanism based secondary (MBS) assay uses selected peptides that best mimic HIV proteins in their binding to htRNA3^Lys. The present invention uses the above-mentioned MBS assay to identify small molecule bioactive hits against a host cell RNA interaction with HIV proteins critical to viral replication. These hits can now be optimized into a completely different class of HIV drug, one that is far less likely to elicit drug resistance. The present invention is exploiting affinity selected peptides as tools to investigate and understand RNA chemistry and structure, including naturally occurring modifications, as identity elements for HIV protein recognition of the human tRNA3^Lys.
MBS assay is based on phage display selected peptides that mimic HIV proteins by binding with high affinity and specificity to only the portion of the htRNA3^Lys of interest, the hASL3^Lys (Graham et al., J. Mol. Biol. 2011, 410(4):698-715; Vendeix et al., J. Mol. Biol. 2012, 416(4):467-85). […] The MBS assay is readily amenable to thermodynamic and structural analyses and nucleotide and peptide amino acid changes for optimization. […]

[3] = tested on: HIV strains NLA3, HXB and JR-CSF; test: HIV strain screening; type: cell-based; conditions: FIG. 13
Text: Small molecules were also screened for their effectiveness against various HIV strains. For example, the effects of small molecules of interest on HIV strains NLA3, HXB and JR-CSF were studied. […] FIG. 13. Further, small molecules were screened for their effectiveness against other HIV drugs that have different modes of action. For example, various small molecules of interest in the initial screen were studied for their effectiveness relative to protease inhibitors (Saquinavir by Roche) and reverse-transciptase inhibitors (Nevirapine by Boehringer Ingelheim) against various strains, including tri-therapy resistant HIV strains. FIGS. 13 and 14. In one specific study, the effect of small molecules on cell culture HIV viral propagation was compared to no drug (by reviewing % Relative Luminescence Unit (RLU)). Small molecules were also compared to Saquinavir and Nevirapine in both standard HIV strain and Tri-therapy resistant HIV strains. FIG. 14.

[4] = Human immunodeficiency virus 1, NL43, read-out: IC 50 (units)

Compound: COc1cc2c(cc1OC)C1=C(C#N)CC/C(=N\C(=O)c3ccc(Cl)cc3)N1CC2 [Compound 18200-4, (E)-4-chloro-N-(1-cyano-9,10-dimethoxy-6,7-dihydro-2H-pyrido[2,1-a]isoquinolin-4(3H)-ylidene)benzamide]
- IC50 (HIV (strain NL4-3); Human immunodeficiency virus 1, NL43, isoquinoline table, assay not given, value lies in the CFAR range of b151, read-out: IC 50): 14 µM

Compound: RVTHHAFLGAHRTVG [Compound P6]
- Kd [1]: 0.45 ± 0.05 µM
- Kd with unmodified ASL3^Lys (unmodified ASL3^Lys): incalculable
- Effect on hASL3^Lys structure by circular dichroism (hASL3^Lys): denature the hASL3^Lys structure
- Quenching of the fluorescence of the fluorescein-tagged P6 by hASL3^Lys [2]: ~80%

Compound: COCCNC(=O)c1ccc2c(=O)n(CCC3=CCCCC3)c(=S)[nH]c2c1 [Compound 6188-1, 3-(2-cyclohexenylethyl)-N-(2-methoxyethyl)-4-oxo-2-thioxo-1,2,3,4-tetrahydroquinazoline-7-carboxamide]
- IC50 (HIV (strain NL4-3); Human immunodeficiency virus 1, NL43, quinazoline table, assay not given, value lies in the CFAR range of b151, read-out: IC50): 3.3 µM

Compound: Cc1cc(NC(=O)C(=O)NC2CC(C)(C)NC(C)(C)C2)ccc1Br [Compound 1668-18, N^1-(4-bromo-3-methylphenyl)-N^2-(2,2,6,6-tetramethylpiperidin-4-yl)oxalimide]
- Anti-HIV bioactivity of hits and analogs (HIV (strain NL4-3)): some of the most bioactive inhibitors
- Inhibiting infection of HIV strains relative to no addition of drug [3]: particularly effective

Compound: CC(C)c1ccc(OCC(=O)N2C(C)CCCC2C)c(Br)c1 (stereo not shown) [Compound 1668-1, 2-(2-bromo-4-isopropylphenoxy)-1-(2,6-dimethylpiperidin-1-yl)ethanone]
- IC50 (HIV (strain NL4-3); [4]): 34 µM

Compound: NS(=O)(=O)c1cccc(NC(=O)Nc2ccc(Cl)c(Cl)c2)c1 [Compound 2491, 3-(3-(3,4-dichlorophenyl)ureido)benzenesulfon-amide]
- IC50 (HIV (strain NL4-3); Human immunodeficiency virus 1, NL43, other small molecule table, assay not given, values lie in the CFAR range of b151, read-out: IC 50): 75 µM

Compound: c1ccc(Nc2nc(Nc3ccccc3)nc(N3CCNCC3)n2)cc1 [Compound 8391-6, N^2,N^4-diphenyl-6-(piperazin-1-yl)-1,3,5-triazine-2,4-diamine]
- IC50 (HIV (strain NL4-3); [4]): 5.3 µM

Compound: CC1CCCC(C)N1C(=O)COc1ccc(C(C)(C)C)cc1Br (stereo not shown) [Compound 1668-12, 2-(2-bromo-4-tert-butylphenoxy)-1-(2,6-dimethylpiperidin-1-yl)ethanone]
- Anti-HIV bioactivity of hits and analogs (HIV (strain NL4-3)): showed potential anti-HIV inhibition

Compound: COc1cc2c(cc1OC)C1=C(C#N)CC/C(=N\C(=O)c3ccco3)N1CC2 [Compound 18200-2, (E)-N-(1-cyano-9,10-dimethoxy-6,7-dihydro-2H-pyrido[2,1-a]isoquinolin-4(3H)-ylidene)furan-2-carboxamide]
- Anti-HIV bioactivity of hits and analogs (HIV (strain NL4-3)): some of the most bioactive inhibitors

Compound: COc1cc2c(cc1OC)C1=C(C#N)CCC(=O)N1CC2 [Compound 18200-3, 9,10-dimethoxy-4-oxo-3,4,6,7-tetrahydro-2H-pyrido[2,1-a]isoquinoline-1-carbonitrile]
- Anti-HIV bioactivity of hits and analogs (HIV (strain NL4-3)): some of the most bioactive inhibitors

Compound: O=[N+]([O-])c1cccc(Nc2nc(O)nc(N3CCCCC3)n2)c1 [Compound 8391-5, 4-(3-nitrophenylamino)-6-(piperidin-1-yl)-1,3,5-triazin-2-ol]
- Anti-HIV bioactivity of hits and analogs (HIV (strain NL4-3)): showed potential anti-HIV inhibition

Compound: CC1(C)CC(NC(=O)COc2ccc3ccccc3c2Br)CC(C)(C)N1 [Compound 1668-17, 2-(1-bromonapthalen-2-yloxy)-N-(2,2,6,6-tetramethylpiperidin-4-yl)acetamide]
- Anti-HIV bioactivity of hits and analogs (HIV (strain NL4-3)): some of the most bioactive inhibitors
